Laboratory results taken from patent publication US4241184A, “Secondary alcohol dehydrogenase enzyme and use thereof” (priority 1979, dated 1980).
Where two headings read alike, the source gives them in different places.

How the values were obtained:
[1] = test system: secondary alcohol dehydrogenase; assay: Purified yeast secondary alcohol dehydrogenase: substrates, electron acceptors, inhibitors, stoichiometry; format: biochemical, Pichia sp. NRRL Y-11,328
Protocol: Large scale cultures of Pichia sp. NRRL Y-11,328 were grown with aeration at 30° C. in a 14-liter New Brunswick f fermentor in a mineral salt medium containing methanol (0.4%, v/v) as the sole carbon source. The cells (200 g., wet weight) were suspended in […] sodium phosphate buffer, pH 7.0, containing 1 mM dithiothreitol (buffer A), and crude extracts were prepared as described previously. To the crude extracts, 18 ml. of protamine sulfate solution [2% solution in 0.1 M tris (hydroxymethyl) aminomethane (tris) base] was added dropwise with continuous stirring. After standing for 30 min., the extracts were centrifuged at 20,000×g. for 60 min. The supernatant solution was fractionated with solid ammonium sulfate. Extracts were brought to 50% of saturation with respect to ammonium sulfate by addition of 313 g. of the salt per liter of extract. Precipitated proteins was removed by centrifugation, and 137 g. of ammonium sulfate was added per liter of the supernatant liquid to bring it to 70% of saturation. Material precipitating between 50 and 70% of saturation was collected by centrifugation and dissolved in buffer A. This preparation was dialyzed overnight against buffer A, and the dialyzed material was applied to a DEAE-cellulose column (5×40 cm) that had been equilibrated with buffer A. The sample was washed with 200 ml. of buffer A and eluted with 2 liters of buffer A that contained NaCl in a linear gradient running from a concentration of 0 to 0.5 M. Fractions of 15 ml. were collected. Fractions containing secondary alcohol dehydrogenase activity were pooled and were termed DEAE-cellulose eluate. The DEAE-cellulose eluate was concentrated by ammonium sulfate fractionation.
Secondary alcohol dehydrogenase activity was measured spectrophotometrically at 340 nm with a NAD^+ as an electron acceptor. The reaction mixture, in a total 3.0 ml., contained 50 mM phosphate buffer, pH 8.0, 5μ moles NAD^+, crude extracts, and subtrate. The reactions were started by addition of 100 μl of 0.1 M substrate and the rate of NAD^+ reduction was measured. Protein concentration was determined by the method of Lowry et al.
The substrate specificity of the purified secondary alcohol dehydrogenase was examined spectrophotometrically.

[2] = test system: secondary alcohol dehydrogenase (SADH); assay: Purified secondary alcohol dehydrogenase activity (formation of reduced NAD); format: biochemical, Pseudomonas sp. ATCC 21439
Protocol: Secondary alcohol dehydrogenase (SADH) from an obligate methanol utilizer, Pseudomonas sp. ATCC 21439 was purified as follows. […] 0.05 M sodium phosphate buffer, pH 7.0 with 0.5 mM dithiothretol (buffer A) and were disrupted sonically (5×1 min.). The crude extract was separated by centrifugation. The crude extract was heat-treated at 50° C. in a water bath for 10 minutes. The resulting precipitate was removed by centrifugation. To the supernatant solution, 25 ml of protamine sulfate solution (2% solution in 0.1 M Tris base) was added dropwise with continuous stirring. After standing for 30 minutes, the extract was centrifuged. The supernatant solution was fractionated with solid ammonium sulfate. The material precipitating between 30 and 60% saturation was collected and was dialized overnight against buffer A. The The dialized material was applied to a DEAE-cellulose column (3 cm by 35 cm) that had been equilibrated with buffer A. The secondary alcohol dehydrogenase activity was eluted in the void volume. This DEAE-cellulose eluate was concentrated by ammonium sulfate fractionation. Material precipitating between 30 and 50% ammonium sulfate saturation was collected by centrifugation and dialyzed overnight against A. This fraction was further washed and filtered through an Amicon unit with XM 50 membrane. The concentrated fraction (6 ml) inside the Amicon unit was applied to an Affi-Gel Blue column (0.8 cm×18 cm) which had been equilibrated with buffer A for affinity chromatography. The column was washed overnight with buffer A (0.18 ml./min.) and then was eluted with buffer A containing 5 mM NAD. Each 1 ml. fraction was collected.
The purified secondary alcohol dehydrogenase enzyme (SADH) may be used directly for converting C3 -C6 secondary alcohols to the corresponding methyl ketones by the procedures described above; however, a source of NAD^+ must be added to the reaction medium. One can determine the NAD-linked secondary alcohol dehydrogenase activity with a fluorescence spectrophotometer (Perkin Elmer, Model MPF 44A) by following the formation of reduced NAD (Ex 340 nm, Em 460 nm). The assay system (3 ml.) will typically contain: sodium phosphate buffer pH 7.0, 150 μmol; NAD 1.0 μmol; a given amount of enzyme preparation; and 20 μmol secondary alcohol. The reaction is started by the addition of secondary alcohol. One unit of SADH enzyme activity represents the reduction of one nmole NAD per minute.
The effect of metal-chelating agents and thioreagents on the activity of the purified SADH enzyme were studied. […] The possibility of ethanol or n-propanol as an inhibitor was studied.

[3] = examined spectrophotometrically
[4] = purified SADH, each inhibitor 1 mM, measured spectrofluorometrically

## CC(O)CO (stereo not shown) [1,2-propandiol]
[1]; [3]
  oxidation by the purified secondary alcohol dehydrogenase: not oxidized

## CCCCCC(C)O (stereo not shown) [2-Heptanol]
[1]; [3]
  oxidation by the purified secondary alcohol dehydrogenase: not oxidized

## CCCCC(C)O (stereo not shown) [2-hexanol]
[2]
  substrate specificity of purified SADH: lower rate
[2]; 2-butanol = 100%
  relative percent rate of oxidation by SADH: 2%
[1]; [3]
  oxidation by the purified secondary alcohol dehydrogenase: catalyzed the oxidation

## CCCCCCC(C)O (stereo not shown) [2-octanol]
[1]; [3]
  oxidation by the purified secondary alcohol dehydrogenase: not oxidized

## CCCC(C)O (stereo not shown) [2-pentanol]
[2]
  substrate specificity of purified SADH: lower rate
[2]; 2-butanol = 100%
  relative percent rate of oxidation by SADH: 5%
[1]; [3]
  oxidation by the purified secondary alcohol dehydrogenase: catalyzed the oxidation

## CC(C)O [2-propanol]
[2]
  substrate specificity of purified SADH: highest
[2]; 2-butanol = 100%
  relative percent rate of oxidation by SADH: 85%
[1]
  NAD^+ Reduced: 5.4 µmol
  Product formed: 5.5 µmol
[1]; [3]
  oxidation by the purified secondary alcohol dehydrogenase: catalyzed the oxidation

## O=C(O)c1cc(SSc2ccc([N+](=O)[O-])c(C(=O)O)c2)ccc1[N+](=O)[O-] [5,5'-dithiobis(2-nitrobenzoic acid)]
[2]; [4]
  % inhibition of SADH activity: 100%
[2]; purified SADH, each inhibitor 1 mM, measured spectrofluorometrically, listed as 5,5'-dithiobis (2-nitrobenzoic acid)
  % inhibition of SADH activity: inhibited

## [Co+2] [Co^++]
[2]; [4]
  % inhibition of SADH activity: 0%

## [Mg+2] [Mg^++]
[2]; [4]
  % inhibition of SADH activity: 0%

## [Mn+2] [Mn^++]
[2]; [4]
  % inhibition of SADH activity: 0%

## CCN1C(=O)C=CC1=O [N-ethylmalemide]
[2]; [4]
  % inhibition of SADH activity: 6%
[2]; purified SADH, each inhibitor 1 mM, measured spectrofluorometrically, listed as N-ethylmaleimide
  % inhibition of SADH activity: not inhibited

## [Zn+2] [Zn^++]
[2]; [4]
  % inhibition of SADH activity: 0%
[2]; purified SADH, each inhibitor 1 mM, measured spectrofluorometrically, listed as zinc
  % inhibition of SADH activity: did not stimulate

## CC=O [acetaldehyde]
[2]
  substrate specificity of purified SADH: lower rate
[2]; 2-butanol = 100%
  relative percent rate of oxidation by SADH: 4%

## O=Cc1ccccc1 [benzaldehyde]
[2]; 2-butanol = 100%
  relative percent rate of oxidation by SADH: not oxidized

## CCCCO [butan-1-ol]
[1]
  oxidation by the purified secondary alcohol dehydrogenase: not oxidized

## CCC(O)CO (stereo not shown) [butane 1,2-diol]
[2]; 2-butanol = 100%
  relative percent rate of oxidation by SADH: not oxidized
[1]; [3]
  oxidation by the purified secondary alcohol dehydrogenase: not oxidized

## CC(O)CCO (stereo not shown) [butane 1,3-diol]
[2]
  substrate specificity of purified SADH: lower rate
[2]; 2-butanol = 100%
  relative percent rate of oxidation by SADH: 2%
[1]; [3]
  oxidation by the purified secondary alcohol dehydrogenase: not oxidized

## CC(O)C(C)O (stereo not shown) [butane 2,3-diol]
[2]
  substrate specificity of purified SADH: lower rate
[2]; 2-butanol = 100%
  relative percent rate of oxidation by SADH: 2.5%

## [Cu+2] [cupric]
[2]; [4]
  % inhibition of SADH activity: 25%

## OC1CCCCC1 [cyclohexanol]
[2]
  substrate specificity of purified SADH: lower rate
[2]; 2-butanol = 100%
  relative percent rate of oxidation by SADH: 4%

## CCO [ethanol]
[2]
  % inhibition of SADH activity: did not inhibit
[1]
  oxidation by the purified secondary alcohol dehydrogenase: not oxidized

## [Fe+3] [ferric]
[2]; [4]
  % inhibition of SADH activity: 35%

## [Fe+2] [ferrous]
[2]; [4]
  % inhibition of SADH activity: 50%

## C=O [formaldehyde]
[2]
  relative percent rate of oxidation by SADH: not oxidized

## CC(C)CO [isobutanol]
[2]; 2-butanol = 100%
  relative percent rate of oxidation by SADH: not oxidized

## N#C[S][Hg][S]C#N [mercuric thiocyanate]
[1]
  inhibition of secondary alcohol dehydrogenase activity: inhibited

## CO [methanol]
[1]; [3]
  oxidation by the purified secondary alcohol dehydrogenase: not oxidized

## CCCO [n-propanol]
[2]
  % inhibition of SADH activity: did not inhibit
[1]
  oxidation by the purified secondary alcohol dehydrogenase: not oxidized

## [Ni+2] [nickel]
[2]; [4]
  % inhibition of SADH activity: 20%

## O=C(O)c1cc[c]([Hg+])cc1.[OH-] [p-hydroxymercuribenzoate]
[2]; [4]
  % inhibition of SADH activity: 100%
[1]
  inhibition of secondary alcohol dehydrogenase activity: strongly inhibited

## CCCCCO [pentan-1-ol]
[1]; [3]
  oxidation by the purified secondary alcohol dehydrogenase: not oxidized

## Oc1ccccc1 [phenol]
[2]
  relative percent rate of oxidation by SADH: not oxidized

## O=[N+]([O-])[O-].[Ag+] [silver nitrate]
[1]
  inhibition of secondary alcohol dehydrogenase activity: inhibited

## O=C(O)CCC(=O)O [succinic acid]
[2]; 2-butanol = 100%
  relative percent rate of oxidation by SADH: not oxidized

## cytochrome c
[1]
  electron acceptor for the purified enzyme: could not act as electron carrier
